ChEMBL document CHEMBL1201862, “PubChem BioAssay data set” (2004)
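Method: 48-hour compound exposure of cells in 96-well plates, five concentrations, linear interpolation of endpoints. The concentration for 50% growth inhibition is given as GI50.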 Calls of active or inactive are those of the source. Cut-off read from the data, not from the text of the source: active = GI50 up to about 1.1 µM and inactive = higher.

Experiments:
Assay in all cases: growth of human tumour cells (NCI), 48 h
[1] = tested on: M14
[2] = tested on: HCC 2998
[3] = tested on: OVCAR-4
[4] = tested on: UO-31
[5] = tested on: SF-268
[6] = tested on: SNB-19
[7] = tested on: A498
[8] = tested on: SK-OV-3
[9] = tested on: HOP-62
[10] = tested on: SW-620
[11] = tested on: NCI-H460
[12] = tested on: 786-0
[13] = tested on: UACC-257
[14] = tested on: LXFL 529
[15] = tested on: TK-10
[16] = tested on: A549
[17] = tested on: EKVX
[18] = tested on: NCI-H23
[19] = tested on: OVCAR-5
[20] = tested on: SN12C
[21] = tested on: OVCAR-3
[22] = tested on: NCI-H226
[23] = tested on: ACHN
[24] = tested on: SR
[25] = tested on: M19-MEL
[26] = tested on: SK-MEL-5
[27] = tested on: SK-MEL-28
[28] = tested on: CAKI-1
[29] = tested on: U-251
[30] = tested on: HL-60
[31] = tested on: SNB-78
[32] = tested on: SNB-75
[33] = tested on: NCI-H522
[34] = tested on: SF-295
[35] = tested on: DMS-273
[36] = tested on: KM12
[37] = tested on: HOP-18
[38] = tested on: HCT-116
[39] = tested on: HCT-15
[40] = tested on: SF-539
[41] = tested on: OVCAR-8
[42] = tested on: HT-29
[43] = tested on: KM-20L2
[44] = tested on: LOX IMVI
[45] = tested on: CCRF-CEM
[46] = tested on: DLD-1
[47] = tested on: IGROV-1
[48] = tested on: RXF 393
[49] = tested on: SK-MEL-2
[50] = tested on: UACC-62
[51] = tested on: COLO 205
[52] = tested on: MOLT-4
[53] = tested on: K562
[54] = tested on: Malme-3M
[55] = tested on: RPMI-8226
[56] = tested on: XF498
[57] = tested on: DMS-114
[58] = tested on: HOP-92

## COC(=O)N/N=C(/CCN1CCCC1)CC(c1ccccc1)c1c(O)c2ccccc2oc1=O (stereo unspecified)
[1]
  GI50: > 100 µM (inactive)
[2]
  GI50: > 100 µM (inactive)
[3]
  GI50: > 100 µM (inactive)
[4]
  GI50: 61.4 µM (inactive)
[5]
  GI50: > 100 µM (inactive)
[6]
  GI50: > 100 µM (inactive)
[7]
  GI50: > 100 µM (inactive)
[8]
  GI50: > 100 µM (inactive)
[9]
  GI50: > 100 µM (inactive)
[10]
  GI50: > 100 µM (inactive)
[11]
  GI50: > 100 µM (inactive)
[12]
  GI50: > 100 µM (inactive)
[13]
  GI50: > 100 µM (inactive)
[14]
  GI50: > 100 µM (inactive)
[15]
  GI50: > 100 µM (inactive)
[16]
  GI50: > 100 µM (inactive)
[17]
  GI50: > 100 µM (inactive)
[18]
  GI50: > 100 µM (inactive)
[19]
  GI50: > 100 µM (inactive)
[20]
  GI50: > 100 µM (inactive)
[21]
  GI50: > 100 µM (inactive)
[22]
  GI50: > 100 µM (inactive)
[23]
  GI50: > 100 µM (inactive)
[24]
  GI50: > 100 µM (inactive)
[25]
  GI50: > 100 µM (inactive)
[26]
  GI50: > 100 µM (inactive)
[27]
  GI50: > 100 µM (inactive)
[28]
  GI50: > 100 µM (inactive)
[29]
  GI50: > 100 µM (inactive)
[30]
  GI50: > 100 µM (inactive)
[31]
  GI50: > 100 µM (inactive)
[32]
  GI50: 30.1 µM (inactive)
[33]
  GI50: > 100 µM (inactive)
[34]
  GI50: > 100 µM (inactive)
[35]
  GI50: > 100 µM (inactive)
[36]
  GI50: > 100 µM (inactive)
[37]
  GI50: > 100 µM (inactive)
[38]
  GI50: > 100 µM (inactive)
[39]
  GI50: > 100 µM
[40]
  GI50: > 100 µM (inactive)
[41]
  GI50: > 100 µM (inactive)
[42]
  GI50: > 100 µM (inactive)
[43]
  GI50: > 100 µM (inactive)
[44]
  GI50: > 100 µM (inactive)
[45]
  GI50: > 100 µM (inactive)
[46]
  GI50: > 100 µM (inactive)
[47]
  GI50: > 100 µM (inactive)
[48]
  GI50: > 100 µM (inactive)
[49]
  GI50: > 100 µM (inactive)
[50]
  GI50: 72.8 µM (inactive)
[51]
  GI50: > 100 µM (inactive)
[52]
  GI50: > 100 µM (inactive)
[53]
  GI50: > 100 µM (inactive)
[54]
  GI50: > 100 µM (inactive)
[55]
  GI50: > 100 µM (inactive)
[56]
  GI50: 38.7 µM (inactive)

## CC1=C(CO)C(=O)O[C@@H]([C@@H](C)[C@H]2CC[C@H]3[C@@H]4C[C@H]5O[C@]56[C@@H](O)C=CC(=O)[C@]6(C)[C@H]4CC[C@]23C)C1 [WITHAFERIN A]
[1]
  GI50: 0.423 µM (active)
[2]
  GI50: 0.509 µM (active)
[57]
  GI50: 0.478 µM (active)
[3]
  GI50: 0.566 µM (active)
[4]
  GI50: 1.09 µM (active)
[5]
  GI50: 0.352 µM (active)
[6]
  GI50: 2.99 µM (inactive)
[9]
  GI50: 2.04 µM (inactive)
[10]
  GI50: 0.199 µM (active)
[11]
  GI50: 2.91 µM (inactive)
[12]
  GI50: 0.401 µM (active)
[13]
  GI50: 1.59 µM (inactive)
[14]
  GI50: 0.333 µM (active)
[15]
  GI50: 0.641 µM (active)
[16]
  GI50: 3.31 µM (inactive)
[18]
  GI50: 0.221 µM (active)
[19]
  GI50: 1.91 µM (inactive)
[21]
  GI50: 1.05 µM (active)
[22]
  GI50: 1.3 µM (inactive)
[23]
  GI50: 1.7 µM (inactive)
[58]
  GI50: 0.467 µM (active)
[24]
  GI50: 0.189 µM (active)
[25]
  GI50: 1.5 µM (inactive)
[26]
  GI50: 1.68 µM (inactive)
[27]
  GI50: 0.55 µM (active)
[28]
  GI50: 0.463 µM (active)
[29]
  GI50: 0.247 µM (active)
[30]
  GI50: 0.0394 µM (active)
[32]
  GI50: 4.11 µM (inactive)
[33]
  GI50: 0.0335 µM (active)
[34]
  GI50: 4.22 µM (inactive)
[35]
  GI50: 0.405 µM (active)
[36]
  GI50: 3.72 µM (inactive)
[38]
  GI50: 0.282 µM (active)
[39]
  GI50: 0.446 µM
[40]
  GI50: 1.34 µM (inactive)
[41]
  GI50: 0.374 µM (active)
[42]
  GI50: 0.417 µM (active)
[43]
  GI50: 0.392 µM (active)
[45]
  GI50: 0.113 µM (active)
[46]
  GI50: 0.303 µM (active)
[47]
  GI50: 1.16 µM (inactive)
[49]
  GI50: 0.601 µM (active)
[50]
  GI50: 1.45 µM (inactive)
[51]
  GI50: 0.406 µM (active)
[52]
  GI50: 0.187 µM (active)
[53]
  GI50: 0.193 µM (active)
[54]
  GI50: 0.243 µM (active)
[55]
  GI50: 0.247 µM (active)
[56]
  GI50: 1.43 µM (inactive)
